Columns and labels:
human ATX = human ATX (Homo sapiens (Human), UniProt Q13822); test: Human ATX enzyme inhibition assay (fluorescence quenching, MR121 substrate); assay type: biochemical; details: human His-tagged ATX 30 nM, MR121 substrate 1 μM
Protocol: Production of Human Full Length ATX, with and without His Tag
Autotaxin (ATX-ENPP2) cloning: cDNA was prepared from commercial human hematopoietic cells total RNA and used as template in overlapping PCR to generate a full length human ENPP2 ORF with or without a 3′-6× His tag. These full length inserts were cloned into the pcDNA3.1V5-His TOPO (Invitrogen) vector. The DNA sequences of several single clones were verified. The DNA from a correct full length clone was used to transfect Hek293 cells for verification of protein expression. The sequence of the encoded ENPP2 conforms to Swissprot entry Q13822, with or without the additional C-terminal 6× His tag.
ATX Fermentation: Recombinant protein was produced by large-scale transient transfection in 20 L controlled stirred tank bioreactors (Sartorius). During cell growth and transfection, temperature, stirrer speed, pH and dissolved oxygen concentration were maintained at 37° C., 120 rpm, 7.1 and 30% DO, respectively. FreeStyle 293-F cells (Invitrogen) were cultivated in suspension in FreeStyle 293 medium (Invitrogen) and transfected at ca. 1-1.5×10E6 cells/mL with above plasmid DNAs using X-tremeGENE Ro-1539 (commercial product, Roche Diagnostics) as complexing agent. Cells were fed a concentrated nutrient solution (J Immunol Methods 194 (1996), 19, 1-199 (page 193)) and induced by sodium butyrate (2 mM) at 72 h post-transfection and harvested at 96 h post-transfection. Expression was analyzed by Western Blot, enzymatic assay and/or analytical IMAC chromatography. After cooling the cell suspension to 4° C. in a flow-through heat exchanger, cell separation and sterile filtration of supernatant was performed by filtration through Zeta Plus 60M02 E16 (Cuno) and Sartopore 2 XLG (Sartorius) filter units. The supernatant was stored at 4° C. prior to purification.
ATX Purification: 20 liter of culture supernatant were conditioned for ultrafiltration by adding Brij 35 to a final concentration of 0.02% and by adjusting the pH to 7.0 using 1 M HCl. Then the supernatant was first microfiltred through a 0.2 µm Ultran-Pilot Open Channel PES filter (Whatman) and afterwards concentrated to 1 liter through an Ultran-Pilot Screen Channel PES filter with 30 kDa MWCO (Whatman). Prior to IMAC chromatography, NiSO4 was added to a final concentration of 1 mM. […] The column was washed stepwise with the same buffer containing 20 mM, 40 mM and 50 mM imidazole, respectively. The protein was subsequently eluted using a linear gradient to 0.5 M imidazole in 15 column volumes. ATX containing fractions were pooled and concentrated using an Amicon cell equipped with a 30 kDa PES filter membrane. […] Final yield of protein after purification was 5-10 mg ATX per liter of culture supernatant. The protein was stored at −80° C.
Human ATX Enzyme Inhibition Assay
Test compounds (10 mM stock in DMSO, 8 μL) were obtained in 384 well sample plates (Corning Costar #3655) and diluted with 8 μL DMSO. […] Then, 15 μL of 41.7 nM ATX solution was added (30 nM final concentration), mixed five times and then incubated for 15 minutes at 30° C. 10 μL of MR121 substrate solution was added (1 μM final concentration), mixed 30 times and then incubated for 15 minutes at 30° C.

[1] = biological target: Human carbonic anhydrase II (hCA-II) (Homo sapiens (Human), UniProt P00918); test: Human carbonic anhydrase-II inhibition assay (absorbance, 4-NPA substrate); assay type: biochemical; details: hCA II 8 nM, 4-NPA 2.5 mM, absorbance 340 nm; read-out: CA-II IC50
Protocol: Human Carbonic Anhydrase-II Inhibition Assay
Then 30 μL of 16 nM hCA II solution was added (8 nM final concentration), mixed five times. 30 μL of 4-NPA substrate solution was added (2.5 mM final concentration), mixed five times.

CO[C@@]12CN(C(=O)c3cc(OCC4CCOCC4)nc(C4CC4)c3)C[C@H]1CN(C(=O)c1ccc(S(N)(=O)=O)cc1F)C2 (relative stereo) [Example 1.02, trans-4-[5-[2-cyclopropyl-6-(oxan-4-ylmethoxy)pyridine-4-carbonyl]-3a-methoxy-3,4,6,6a-tetrahydro-1H-pyrrolo[3,4-c]pyrrole-2-carbonyl]-3-fluorobenzenesulfonamide]
IC50 (human ATX): 6 nM | IC50 [1]: 10 nM

NS(=O)(=O)c1ccc(C(=O)N2C[C@@H]3CN(C(=O)OCc4ccc(OC(F)(F)F)cc4)C[C@@]3(F)C2)cc1 (single isomer, unassigned) [Example 4.02, (−)-trans-5-(4-sulfamoyl-benzoyl)-3a-fluoro-hexahydro-pyrrolo[3,4-c]pyrrole-2-carboxylic acid 4-trifluoromethoxy-benzyl ester]
IC50 (human ATX): 8 nM | IC50 [1]: 10 nM

CO[C@@]12CN(C(=O)OCc3ncc(C(F)(F)F)cc3NC(=O)C(C)(C)C)C[C@H]1CN(C(=O)c1ccc(S(N)(=O)=O)cc1)C2 (single isomer, unassigned) [Example 5.03, (+)-trans-5-(4-sulfamoyl-benzoyl)-3a-methoxy-hexahydro-pyrrolo[3,4-c]pyrrole-2-carboxylic acid 3-(2,2-dimethyl-propionylamino)-5-trifluoromethyl-pyridin-2-ylmethyl ester]
IC50 (human ATX): 13 nM | IC50 [1]: 20 nM

C[C@]12CN(C(=O)OCc3ccc(OC(F)(F)F)cc3)C[C@@H]1CN(C(=O)c1ccc(S(N)(=O)=O)cc1)C2 [Example 5.00, (−)-(3aS,6aS)-3a-methyl-5-(4-sulfamoylbenzoyl)-hexahydro-pyrrolo[3,4-c]pyrrole-2-carboxylic acid 4-trifluoromethoxy-benzyl ester]
IC50 (human ATX): 7 nM | IC50 [1]: 38 nM

NS(=O)(=O)c1ccc(C(=O)N2C[C@H]3CN(C(=O)CCc4ccc(OC(F)(F)F)cc4)C[C@]3(F)C2)c(F)c1 (relative stereo) [Example 3.03, trans-4-[3a-fluoro-2-[3-[4-(trifluoromethoxy)phenyl]propanoyl]-3,4,6,6a-tetrahydro-1H-pyrrolo[3,4-c]pyrrole-5-carbonyl]-3-fluorobenzenesulfonamide]
IC50 (human ATX): 4 nM | IC50 [1]: 6 nM
